How the values were obtained:
Test in all cases: relative viability (nuclei count vs DMSO), 5 days (fraction); higher = more cells survive
[1] = compound: OCc1c[nH]c2ccccc12 [Indole-3-carbinol] + C[C@@H](Oc1cc(-c2cnn(C3CCNCC3)c2)cnc1N)c1c(Cl)ccc(F)c1Cl [Crizotinib] (partner 1 µM)
How it was run: (§1)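 Relative viability was taken as the ratio of nuclei in treated wells to nuclei in vehicle wells. Lung cancer cell lines in 1536-well plates received compounds by pin tool one day after seeding, either one drug alone or a fixed anchor-drug dose plus five library-drug doses (not always all listed) in √10 steps. Nuclei were counted on 4× images after 5 days of treatment, and values are medians of duplicate plates.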

[2] = compound: OCc1c[nH]c2ccccc12 [Indole-3-carbinol] + CS(=O)(=O)N1CCN(Cc2cc3nc(-c4cccc5[nH]ncc45)nc(N4CCOCC4)c3s2)CC1 [Pictilisib] (partner 1 µM)
How it was run: as §1

[3] = compound: OCc1c[nH]c2ccccc12 [Indole-3-carbinol] + CS(=O)(=O)CCNCc1ccc(-c2ccc3ncnc(Nc4ccc(OCc5cccc(F)c5)c(Cl)c4)c3c2)o1 [Lapatinib] (partner 2 µM)
How it was run: as §1

[4] = compound: OCc1c[nH]c2ccccc12 [Indole-3-carbinol] + N=C(N)NC(=N)NCCc1ccccc1 [Phenformin] (partner 250 µM)
How it was run: as §1

[5] = compound: OCc1c[nH]c2ccccc12 [Indole-3-carbinol] + CC1(C)CCC(c2ccc(Cl)cc2)=C(CN2CCN(c3ccc(C(=O)NS(=O)(=O)c4ccc(N[C@H](CCN5CCOCC5)CSc5ccccc5)c(S(=O)(=O)C(F)(F)F)c4)cc3)CC2)C1 [Navitoclax] (partner 0.5 µM)
How it was run: as §1

[6] = compound: OCc1c[nH]c2ccccc12 [Indole-3-carbinol] + COc1cc2c(Oc3ccc(NC(=O)C4(C(=O)Nc5ccc(F)cc5)CC4)cc3F)ccnc2cc1OCCCN1CCOCC1 [Foretinib] (partner 0.25 µM)
How it was run: as §1

[7] = compound: OCc1c[nH]c2ccccc12 [Indole-3-carbinol] + Cc1nc(NC(=O)N2CCC[C@H]2C(N)=O)sc1-c1ccnc(C(C)(C)C(F)(F)F)c1 [Alpelisib] (partner 2 µM)
How it was run: as §1

[8] = compound: OCc1c[nH]c2ccccc12 [Indole-3-carbinol] + C[C@]1(O)C[C@@H](c2nc(-c3ccc4ccc(-c5ccccc5)nc4c3)c3c(N)nccn32)C1 [Linsitinib] (partner 1 µM)
How it was run: as §1

[9] = compound: OCc1c[nH]c2ccccc12 [Indole-3-carbinol] + O=C(c1cc(Cc2n[nH]c(=O)c3ccccc23)ccc1F)N1CCN(C(=O)C2CC2)CC1 [Olaparib] (partner 8 µM)
How it was run: as §1

[10] = compound: OCc1c[nH]c2ccccc12 [Indole-3-carbinol] + Nc1ncn([C@H]2C[C@H](O)[C@@H](CO)O2)c(=O)n1 [Decitabine] (partner 2 µM)
How it was run: as §1

[11] = compound: OCc1c[nH]c2ccccc12 [Indole-3-carbinol]
How it was run: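 Only plates meeting two conditions passed: control CV below 25% and at least one doubling. Lung cancer cell lines, kept overnight at 37 °C in 1536-well plates, were pinned with five library-drug doses (not always all listed) √10 apart on vehicle-anchored plates and grown 5 days without medium change. A one-step fix, permeabilisation and Hoechst stain preceded 4× imaging and MetaXpress nuclear counting. Viability equals treated-well nuclei divided by vehicle-well nuclei, as the median over plates.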

[12] = compound: OCc1c[nH]c2ccccc12 [Indole-3-carbinol] + CC(C)C[C@H](NC(=O)[C@H](Cc1ccccc1)NC(=O)c1cnccn1)B(O)O [Bortezomib] (partner 0.002 µM)
How it was run: as §1

A549
relative viability ([1]; first compound 0.253 µM): 0.712 | relative viability ([1]; first compound 0.8 µM): 0.914 | relative viability ([1]; first compound 2.53 µM): 0.819 | relative viability ([1]; first compound 8 µM): 0.765 | relative viability ([2]; first compound 0.253 µM): 0.493 | relative viability ([2]; first compound 0.8 µM): 0.686 | relative viability ([2]; first compound 2.53 µM): 0.555 | relative viability ([2]; first compound 8 µM): 0.456 | relative viability ([3]; first compound 0.253 µM): 0.952 | relative viability ([3]; first compound 0.8 µM): 1.11 | relative viability ([3]; first compound 2.53 µM): 0.995 | relative viability ([3]; first compound 8 µM): 0.938 | relative viability ([4]; first compound 0.253 µM): 0.18 | relative viability ([4]; first compound 0.8 µM): 0.226 | relative viability ([4]; first compound 2.53 µM): 0.254 | relative viability ([4]; first compound 8 µM): 0.156 | relative viability ([5]; first compound 0.253 µM): 1.16 | relative viability ([5]; first compound 0.8 µM): 1.29 | relative viability ([5]; first compound 2.53 µM): 1.22 | relative viability ([5]; first compound 8 µM): 1.17 | relative viability ([6]; first compound 0.253 µM): 0.968 | relative viability ([6]; first compound 0.8 µM): 1.04 | relative viability ([6]; first compound 2.53 µM): 0.911 | relative viability ([6]; first compound 8 µM): 0.965 | relative viability ([7]; first compound 0.253 µM): 0.876 | relative viability ([7]; first compound 0.8 µM): 0.842 | relative viability ([7]; first compound 2.53 µM): 0.832 | relative viability ([7]; first compound 8 µM): 0.66 | relative viability ([8]; first compound 0.253 µM): 0.656 | relative viability ([8]; first compound 0.8 µM): 0.578 | relative viability ([8]; first compound 2.53 µM): 0.697 | relative viability ([8]; first compound 8 µM): 0.545 | relative viability ([9]; first compound 0.253 µM): 0.458 | relative viability ([9]; first compound 0.8 µM): 0.413 | relative viability ([9]; first compound 2.53 µM): 0.356 | relative viability ([9]; first compound 8 µM): 0.322 | relative viability ([10]; first compound 0.253 µM): 0.271 | relative viability ([10]; first compound 0.8 µM): 0.287 | relative viability ([10]; first compound 2.53 µM): 0.272 | relative viability ([10]; first compound 8 µM): 0.235 | relative viability ([11]; 0.253 µM): 0.951 | relative viability ([11]; 0.8 µM): 1.03 | relative viability ([11]; 2.53 µM): 1.02 | relative viability ([11]; 8 µM): 0.91

Calu-6
relative viability ([1]; first compound 0.253 µM): 0.759 | relative viability ([1]; first compound 0.8 µM): 0.863 | relative viability ([1]; first compound 2.53 µM): 0.871 | relative viability ([1]; first compound 8 µM): 0.742 | relative viability ([2]; first compound 0.253 µM): 0.887 | relative viability ([2]; first compound 0.8 µM): 1.05 | relative viability ([2]; first compound 2.53 µM): 0.916 | relative viability ([2]; first compound 8 µM): 0.865 | relative viability ([3]; first compound 0.253 µM): 1.03 | relative viability ([3]; first compound 0.8 µM): 1.12 | relative viability ([3]; first compound 2.53 µM): 1.05 | relative viability ([3]; first compound 8 µM): 0.94 | relative viability ([12]; first compound 0.253 µM): 1.08 | relative viability ([12]; first compound 0.8 µM): 1.1 | relative viability ([12]; first compound 2.53 µM): 1.01 | relative viability ([12]; first compound 8 µM): 0.966 | relative viability ([5]; first compound 0.253 µM): 0.836 | relative viability ([5]; first compound 0.8 µM): 0.947 | relative viability ([5]; first compound 2.53 µM): 0.889 | relative viability ([5]; first compound 8 µM): 0.648 | relative viability ([6]; first compound 0.253 µM): 0.927 | relative viability ([6]; first compound 0.8 µM): 0.941 | relative viability ([6]; first compound 2.53 µM): 0.842 | relative viability ([6]; first compound 8 µM): 0.841 | relative viability ([7]; first compound 0.253 µM): 1.04 | relative viability ([7]; first compound 0.8 µM): 0.966 | relative viability ([7]; first compound 2.53 µM): 0.819 | relative viability ([7]; first compound 8 µM): 0.922 | relative viability ([8]; first compound 0.253 µM): 0.974 | relative viability ([8]; first compound 0.8 µM): 0.88 | relative viability ([8]; first compound 2.53 µM): 1.07 | relative viability ([8]; first compound 8 µM): 0.92 | relative viability ([9]; first compound 0.253 µM): 0.615 | relative viability ([9]; first compound 0.8 µM): 0.629 | relative viability ([9]; first compound 2.53 µM): 0.59 | relative viability ([9]; first compound 8 µM): 0.536 | relative viability ([11]; 0.253 µM): 1.07 | relative viability ([11]; 0.8 µM): 0.994 | relative viability ([11]; 2.53 µM): 1 | relative viability ([11]; 8 µM): 0.914

EBC-1
relative viability ([1]; first compound 0.253 µM): 0.176 | relative viability ([1]; first compound 0.8 µM): 0.188 | relative viability ([1]; first compound 2.53 µM): 0.205 | relative viability ([1]; first compound 8 µM): 0.169 | relative viability ([2]; first compound 0.253 µM): 0.359 | relative viability ([2]; first compound 0.8 µM): 0.4 | relative viability ([2]; first compound 2.53 µM): 0.347 | relative viability ([2]; first compound 8 µM): 0.364 | relative viability ([3]; first compound 0.253 µM): 0.196 | relative viability ([3]; first compound 0.8 µM): 0.186 | relative viability ([3]; first compound 2.53 µM): 0.228 | relative viability ([3]; first compound 8 µM): 0.244 | relative viability ([12]; first compound 0.253 µM): 0.546 | relative viability ([12]; first compound 0.8 µM): 0.541 | relative viability ([12]; first compound 2.53 µM): 0.628 | relative viability ([12]; first compound 8 µM): 0.477 | relative viability ([5]; first compound 0.253 µM): 0.355 | relative viability ([5]; first compound 0.8 µM): 0.404 | relative viability ([5]; first compound 2.53 µM): 0.39 | relative viability ([5]; first compound 8 µM): 0.415 | relative viability ([6]; first compound 0.253 µM): 0.122 | relative viability ([6]; first compound 0.8 µM): 0.0975 | relative viability ([6]; first compound 2.53 µM): 0.1 | relative viability ([6]; first compound 8 µM): 0.102 | relative viability ([7]; first compound 0.253 µM): 0.826 | relative viability ([7]; first compound 0.8 µM): 0.856 | relative viability ([7]; first compound 2.53 µM): 0.83 | relative viability ([7]; first compound 8 µM): 0.719 | relative viability ([8]; first compound 0.253 µM): 0.974 | relative viability ([8]; first compound 0.8 µM): 0.965 | relative viability ([8]; first compound 2.53 µM): 1.07 | relative viability ([8]; first compound 8 µM): 0.71 | relative viability ([9]; first compound 0.253 µM): 0.684 | relative viability ([9]; first compound 0.8 µM): 0.732 | relative viability ([9]; first compound 2.53 µM): 0.631 | relative viability ([9]; first compound 8 µM): 0.566 | relative viability ([11]; 0.253 µM): 0.938 | relative viability ([11]; 0.8 µM): 1.01 | relative viability ([11]; 2.53 µM): 1.07 | relative viability ([11]; 8 µM): 0.871
